From PubChem BioAssay AID328 (DTP/NCI, 2004) come the findings set out here.

Several values for one entry are separate records, joined by “and”; a condition that tells them apart may be missing. Equal entries are not always repeated. Toxic doses and inconclusive results are not listed.

In the assay the test system is BDF1 mice, P388 leukemia ip, median survival T/C. The experiment in a line: NCI In Vivo Anticancer Drug Screen. Data for tumor model P388 Leukemia (intraperitoneal) in B6D2F1 (BDF1) mice. Conditions: endpoint: median survival time, higher = longer survival. An outline of the steps:
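Mice carrying the transplantable tumour receive compound or vehicle. Survival is followed in each arm, and the treated measure is divided by the vehicle measure.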

Setting [1] is: dose: 50.0 mg/kg/injection, schedule: Q04DX003 (ip), vehicle: saline with Tween-80.
Setting [2] is: dose: 100.0 mg/kg/injection, schedule: Q04DX003 (ip), vehicle: saline with Tween-80.
The mark [3] stands for this setting: dose: 200.0 mg/kg/injection, schedule: Q04DX003 (ip), vehicle: saline with Tween-80.
Setting [4] is: dose: 12.5 mg/kg/injection, schedule: Q01DX009 (ip), vehicle: saline with Tween-80.
Where [5] appears, read: dose: 25.0 mg/kg/injection, schedule: Q01DX009 (ip), vehicle: saline with Tween-80.
[6] abbreviates: dose: 50.0 mg/kg/injection, schedule: Q01DX009 (ip), vehicle: saline with Tween-80.
[7] abbreviates: dose: 50.0 mg/kg/injection, schedule: Q01DX009 (ip), vehicle: saline.
Setting [8] is: dose: 25.0 mg/kg/injection, schedule: Q04DX003 (ip), vehicle: saline.
Where [9] appears, read: dose: 50.0 mg/kg/injection, schedule: Q04DX003 (ip), vehicle: saline.
The mark [10] stands for this setting: dose: 100.0 mg/kg/injection, schedule: Q04DX003 (ip), vehicle: saline.
The mark [11] stands for this setting: dose: 100.0 mg/kg/injection, schedule: Q01DX009 (ip), vehicle: Klucel (hydroxypropylcellulose) (HPC).
The mark [12] stands for this setting: dose: 200.0 mg/kg/injection, schedule: Q01DX009 (ip), vehicle: Klucel (hydroxypropylcellulose) (HPC).
[13] abbreviates: dose: 400.0 mg/kg/injection, schedule: Q01DX009 (ip), vehicle: Klucel (hydroxypropylcellulose) (HPC).
Where [14] appears, read: dose: 100.0 mg/kg/injection, schedule: Q04DX003 (ip), vehicle: Klucel (hydroxypropylcellulose) (HPC).
[15] abbreviates: dose: 200.0 mg/kg/injection, schedule: Q04DX003 (ip), vehicle: Klucel (hydroxypropylcellulose) (HPC).
Setting [16] is: dose: 100.0 mg/kg/injection, schedule: Q01DX009 (ip), vehicle: saline with Tween-80.
[17] abbreviates: dose: 200.0 mg/kg/injection, schedule: Q01DX009 (ip), vehicle: saline with Tween-80.
Setting [18] is: dose: 400.0 mg/kg/injection, schedule: Q01DX009 (ip), vehicle: saline with Tween-80.
Where [19] appears, read: dose: 400.0 mg/kg/injection, schedule: Q04DX003 (ip), vehicle: Klucel (hydroxypropylcellulose) (HPC).

Regarding `Cc1ccc(S(=O)(=O)N(C)c2ccccc2C(=O)O)cc1`, the T/C reads like this: (dose: 100.0 mg/kg/injection, schedule: Q01DX001 (ip), vehicle: saline sonified) 100 % of control; (dose: 200.0 mg/kg/injection, schedule: Q01DX001 (ip), vehicle: saline sonified) 95 % of control; (dose: 400.0 mg/kg/injection, schedule: Q01DX001 (ip), vehicle: saline sonified) 100 % of control.
As for `O=C(O)c1ccc(C(=O)O)c2c(C(=O)O)ccc(C(=O)O)c12`, the T/C is 95 % of control under setting [1], 95 % of control under setting [2] and 90 % of control under setting [3].
Regarding `Nc1ccc(CCc2ccccc2)cc1`, the T/C by setting is: under setting [4], 122 % of control; under setting [5], 100 % of control; under setting [6], 109 % of control; (dose: 56.25 mg/kg/injection, schedule: Q04DX003 (ip), vehicle: saline with Tween-80) 108 % of control; (dose: 75.0 mg/kg/injection, schedule: Q01DX009 (ip), vehicle: saline with Tween-80) 118 % of control; (dose: 112.5 mg/kg/injection, schedule: Q04DX003 (ip), vehicle: saline with Tween-80) 112 % of control.
As for `O=S(=O)(O/C1=C/CCCCCC1)C(F)(F)C(F)(F)C(F)(F)C(F)(F)F`, the T/C under setting [7] is 107 % of control; the T/C (dose: 100.0 mg/kg/injection, schedule: Q01DX009 (ip), vehicle: saline) is 109 % of control; the T/C (dose: 200.0 mg/kg/injection, schedule: Q01DX009 (ip), vehicle: saline) is 109 % of control.
Regarding `Cc1c(C)c2c(N)c3ccccc3nc2c2ccccc12`, the T/C is, setting by setting: (dose: 12.5 mg/kg/injection, schedule: Q01DX001 (ip), vehicle: saline with Tween-80) 97 % of control; (dose: 25.0 mg/kg/injection, schedule: Q01DX001 (ip), vehicle: saline with Tween-80) 100 % of control and 117 % of control; (dose: 50.0 mg/kg/injection, schedule: Q01DX001 (ip), vehicle: saline with Tween-80) 105 % of control.
As to `NS(=O)(=O)Cc1ccccc1`, the T/C runs as follows: under setting [8], 100 % of control; under setting [9], 100 % of control; under setting [10], 100 % of control.
As for `Nc1ncnc2c1ncn2C1(CO)OC(CO)C(O)C1O` (stereo not given), the T/C is 106 % of control under setting [11], 115 % of control under setting [12] and 103 % of control under setting [13].
Turning to `CCN(CC)c1c(C)nnc2c(-c3ccccc3)cnn12`, the T/C by setting is: under setting [1], 108 % of control; under setting [2], 100 % of control; under setting [3], 104 % of control.
For `Cc1ccc(N(N)c2ccc(C)cc2)cc1`, the T/C by setting is: (dose: 50.0 mg/kg/injection, schedule: Q01DX009 (ip), vehicle: Klucel (hydroxypropylcellulose) (HPC)) 100 % of control; (dose: 50.0 mg/kg/injection, schedule: Q04DX003 (ip), vehicle: Klucel (hydroxypropylcellulose) (HPC)) 107 % of control; under setting [11], 118 % of control; under setting [14], 107 % of control; under setting [12], 113 % of control; under setting [15], 100 % of control.
As to `CNNC(=O)NC`, the T/C (dose: 2.06 mg/kg/injection, schedule: Q01DX009 (ip), vehicle: saline) was 108 % of control; the T/C (dose: 4.12 mg/kg/injection, schedule: Q01DX009 (ip), vehicle: saline) is 116 % of control; the T/C (dose: 8.25 mg/kg/injection, schedule: Q01DX009 (ip), vehicle: saline) was 91 % of control; the T/C (dose: 35.0 mg/kg/injection, schedule: Q04DX003 (ip), vehicle: saline) was 109 % of control; the T/C (dose: 55.0 mg/kg/injection, schedule: Q04DX003 (ip), vehicle: saline) was 113 % of control; the T/C (dose: 80.0 mg/kg/injection, schedule: Q04DX003 (ip), vehicle: saline) is 118 % of control. Further, the T/C (dose: 120.0 mg/kg/injection, schedule: Q04DX003 (ip), vehicle: saline) is 109 % of control; the T/C (dose: 180.0 mg/kg/injection, schedule: Q04DX003 (ip), vehicle: saline) was 113 % of control; the T/C (dose: 270.0 mg/kg/injection, schedule: Q04DX003 (ip), vehicle: saline) is 109 % of control.
With `CC(=O)NCCN=Cc1ccccc1`, the T/C was 112 % of control under setting [16] and 120 % of control under setting [17].
For the compound `O=C(O)C1CC2C=CC1C2` (stereo not given), the T/C is 118 % of control under setting [4]; 113 % of control under setting [5]; 109 % of control under setting [6]; 110 % of control and 100 % of control under setting [16]; 90 % of control under setting [17]; 86 % of control under setting [18].
With `COc1cc2ccc3ccncc3c2cc1OC`, the T/C by setting is: (dose: 12.5 mg/kg/injection, schedule: Q01DX009 (ip), vehicle: saline) 95 % of control; (dose: 25.0 mg/kg/injection, schedule: Q01DX009 (ip), vehicle: saline) 100 % of control; under setting [8], 95 % of control; under setting [7], 90 % of control; under setting [9], 113 % of control; under setting [10], 86 % of control.
Consider `CC(=O)OC1CCC(C)(C2CCC3(C)C(C(C)CCCC(C)C)CCC3C2CC(=O)O)C(=O)C1` (stereo not given), for which the T/C is 90 % of control under setting [11], 90 % of control under setting [12] and 95 % of control under setting [13].
Consider `CCCCCCCCCCCCCCCc1ccc(C(=O)C[n+]2ccccc2)cc1`, for which the T/C (dose: 3.13 mg/kg/injection, schedule: Q01DX009 (ip), vehicle: saline with Tween-80) is 100 % of control; the T/C (dose: 6.25 mg/kg/injection, schedule: Q01DX009 (ip), vehicle: saline with Tween-80) was 104 % of control; the T/C under setting [4] was 118 % of control; the T/C (dose: 16.5 mg/kg/injection, schedule: Q04DX003 (ip), vehicle: saline with Tween-80) was 122 % of control.
For the compound `O=C1CN(c2ccccc2)CC(=O)N2CCCN12`, the T/C (dose: 50.0 mg/kg/injection, schedule: Q01DX005 (ip), vehicle: saline with Tween-80) is 92 % of control and the T/C (dose: 200.0 mg/kg/injection, schedule: Q01DX005 (ip), vehicle: saline with Tween-80) was 88 % of control.
With `O=C(CC(NC(=O)OCc1ccccc1)c1nn[nH]n1)OCc1ccccc1` (stereo not given), the T/C is, setting by setting: under setting [2], 100 % of control; under setting [3], 95 % of control; (dose: 400.0 mg/kg/injection, schedule: Q04DX003 (ip), vehicle: saline with Tween-80) 95 % of control.
As for `COC(=S)SCN(CSC(=S)OC)c1ccccc1Cl`, the T/C reads like this: under setting [16], 118 % of control; under setting [18], 159 % of control; (dose: 600.0 mg/kg/injection, schedule: Q01DX009 (ip), vehicle: saline with Tween-80) 158 % of control.
For `N#CC(C#N)=c1ccc(=C(C#N)C#N)cc1`, the T/C is 108 % of control under setting [5]; 88 % of control (dose: 25.0 mg/kg/injection, schedule: Q04DX003 (ip), vehicle: saline with Tween-80); 108 % of control under setting [6]; 92 % of control under setting [1]; 111 % of control under setting [2].
Consider `CO[C@H]1CC=C2CCN3CCCc4cc5c(cc4[C@]23C1)OCO5`, for which the T/C is 100 % of control (dose: 10.0 mg/kg/injection, schedule: Q01DX009 (ip), vehicle: alcohol) and 100 % of control (dose: 20.0 mg/kg/injection, schedule: Q01DX009 (ip), vehicle: alcohol).
`CCC(C#N)(c1ccccc1)c1ccccc1`: the T/C by setting is: under setting [11], 90 % of control; under setting [14], 95 % of control; under setting [15], 95 % of control; under setting [13], 100 % of control; under setting [19], 100 % of control.
Consider `Cc1nn(CCO)c(C)c1N=[N+]([O-])c1c(C)nn(CCO)c1C`, for which the T/C (dose: 15.0 mg/kg/injection, schedule: Q01DX009 (ip), vehicle: saline with Tween-80) was 114 % of control.
`CC(=O)OCC(=O)[C@@]1(O)CC[C@H]2[C@@H]3CCC4=CC(=O)[C@H](C)C[C@]4(C)[C@H]3[C@@H](O)C[C@@]21C`: the T/C by setting is: under setting [11], 118 % of control; under setting [12], 109 % of control; under setting [13], 118 % of control.
In the case of `CC1=CC(OC2CCCCO2)C2CC1C2(C)C` (stereo not given), the T/C is 112 % of control under setting [14], 112 % of control under setting [15] and 104 % of control under setting [19].
